Experimental data: paper PMC10950498, “Ligands of HMG-like dorsal switch protein 1 of Spodoptera exigua leads to mortality in diamondback moth, Plutellaxylostella” (Heliyon, 2024)

Target: T1, HMG-like dorsal switch protein 1 (rSe-DSP1)
T1 construct: recombinant DSP1 protein (rSe-DSP1)
Assay: thermal shift assay with fitted Kd
Assay type: binding, Spodoptera exigua

`O=C1NC(=O)c2ccccc21` [PM, Phthalimide] showed a Kd of 197 µM.
With `CCOc1cc(O)ccc1OC` [EMP, 3-Ethoxy-4-Methoxyphenol] the Kd was 148 µM.
Molecule `N#Cc1ccccc1C(=O)O` [CBA, o-Cyanobenzoic acid] has a Kd of 246 µM.
